Usually CC50 stands for the concentration giving 50% cytotoxicity.

The subject of this assay is cytotoxicity counterscreen, ATP luminescence viability. The assay is described as follows: cell viability loss – luminescence, cytotoxicity control for RBBP9 inhibitor project, late-stage follow-up (AID 2243).

Active and inactive are the calls of the source. The rule behind the calls is not given here. Some results are limits rather than exact numbers.

Take `C/C(=N\OC(=O)C1CCCCC1)c1nccs1`: the CC50 was > 100 µM (inactive).

For the origin of these results see PubChem BioAssay AID2243 (The Scripps Research Institute Molecular Screening Center, 2010).
